These are literature values, as cited in US20200171149A1, “COMBINATION THERAPY FOR NON-SMALL CELL LUNG CANCER POSITIVE FOR EGFR MUTATION” (MEDIMMUNE LIMITED, priority 2015, published 2020).

Data set [1] relates to EGFR-TKI sensitizing and resistance T790M mutations. As to conditions: preclinical models; Janne et al., J Clin Oncol 2014.
Data set [2] relates to tumor. As to conditions: patients.
Data set [3] has as its system human T-cell activation. The following applies: in vitro.
The subject of data set [4] is xenograft model. As to conditions: T-cell dependent mechanism.

In the case of `C=CC(=O)Nc1cc(Nc2nccc(-c3cn(C)c4ccccc34)n2)c(OC)cc1N(C)CCN(C)C` [AZD9291, N-(2-((2-(dimethylamino)ethyl)(methyl)amino)-4-methoxy-5-((4-(1-methyl-1H-indol-3-yl)pyrimidin-2-yl)amino)phenyl)acrylamide], in data set [1], the “Effectiveness against EGFR mutations” value was “effective against both EGFR-TKI sensitizing and resistance T790M mutations”.

Take `COc1cc2ncnc(Nc3ccc(F)c(Cl)c3)c2cc1OCCCN1CCOCC1` [gefitinib, N-(3-chloro-4-fluorophenyl)-7-methoxy-6-(3-morpholinopropoxy)quinazolin-4-amine]: in data set [2], the Tumor regression entry is “tumor regression in some patients”.

B1: MEDI4736: anti-PD-L1 antibody selective for PD-L1; light chain variable SEQ ID NO: 1, heavy chain variable SEQ ID NO: 2 (antibody, V domains shown)
VH: EVQLVESGGGLVQPGGSLRLSCAASGFTFSRYWMSWVRQAPGKGLEWVANIKQDGSEKYYVDSVKGRFTISRDNAKNSLYLQMNSLRAEDTAVYYCAREGGWFGELAFDYWGQGTLVTVSS
VL: EIVLTQSPGTLSLSPGERATLSCRASQRVSSSYLAWYQQKPGQAPRLLIYDASSRATGIPDRFSGSGSGTDFTLTISRLEPEDFAVYYCQQYGSLPWTFGQGTKVEIK
In the case of B1, the “Relief of PD-L1-mediated suppression of human T-cell activation” value in data set [3] is listed as “can relieve PD-L-mediated suppression of human T-cell activation”. The Tumor growth inhibition entry in data set [4] was “inhibits tumor growth”.
